Assays:
PSMA = PSMA (Homo sapiens, UniProt Q04609); experiment: Radioguided surgery (RGS) with gamma probe, ex vivo fluorescence microscopy; assay type: in vivo; design: Five patients with a diagnosis of initial (n = 4) or biochemical recurrence of (n = 1) histologically proven prostate cancer; from tissue; host or cells: prostate cancer patients: primary tumour, lymph nodes, resected tissue sections
Experimental: Radioguided open surgery was performed the day after tracer injection by an experienced urologic surgeon (DW; more than 20 years of surgical experience) in collaboration with a nuclear medicine physician. Using a conventional gamma probe (C-Trak®, SanuC GmbH, Jahnsdorf, Germany), suspicious lymph nodes (defined as spots with signal-to-background ratios ≥ 2) were excised separately followed by pelvic lymph node dissection. […] Fresh frozen tissue sections were prepared using a standard cryosectioning protocol with 10–20 μm sections mounted for fluorescence imaging. These slides were stored on dry ice prior to fluorescence microscopy to preserve tissue integrity. Fluorescence microscopy of patient samples was performed using an Axioscan 7 slide scanner (Zeiss) equipped with a Colibri 7 LED light source and a 20×/0.8 NA Plan-Apochromat objective. Cy5 fluorescence was acquired using a filter set with excitation 640/30 nm, dichroic mirror 660 nm, and emission 690/50 nm. Image acquisition and analysis were performed using ZEN Blue 3.5 software (Zeiss). For immunohistochemical analysis, adjacent formalin-fixed, paraffin-embedded tissue sections were cut at 2 μm thickness and stained for PSMA (clone EP192 BioSB, BIOO Scientific) using a Ventana Benchmark automated platform (Bio SB, Santa Barbara, CA, USA). Conventional hematoxylin and eosin (H&E) and immunohistochemical (for PSMA) staining was performed on corresponding tissue sections to enable morphologic correlation and verification of target expression, respectively. For further information on immunhistochemical staining please refer to the Supplementary Material.

in vivo = details: male, NSG, mouse, iv, 1 nmol/mouse, total radioactivity, biodistribution
Experimental: As documented in the literature, engineered PC3-Pip cells express particularly high PSMA levels, which are not representative for the situation in human tumors (mean number of PSMA binding sites = 4.9 × 10^6 sites/cell for PC3-Pip cells vs. 5.9 × 10^5 sites/cell for LNCaP [60]). Thus, to correlate quantitative data with in vivo/ex vivo fluorescence signals, a biodistribution study was conducted under the same conditions as the fluorescence imaging. NSG mice bearing PC3-Pip (PSMA+) and PC3 WT (PSMA-) xenografts on opposite shoulders received [^99mTc]Tc-PSMA-HSG (1 nmol), and biodistribution was assessed at 2 h p.i. (Supplementary Table 1). The overall distribution matched previous data from LNCaP-bearing mice (Table 3), but tumor uptake was over twice as high (26.6 ± 5.0%iD/g). Low uptake in PC3 WT tumors (1.6 ± 0.3%iD/g) confirmed PSMA-specificity.
PC-3 PIP xenografts were established by subcutaneous injection of 5 × 10^6 PC3-PIP cells/mouse using 8–12-week-old male NSG mice (in-house breeding, Dpt. of Oncology, University of Lausanne) as previously described. Tumors reached a size of 4-8 mm in diameter after 5-6 days and were then immediately used for the fluorescence imaging studies.

[1] = test system: PSMA expressing LNCaP cells; experiment: Dual tracer internalization assay; assay type: cell-based, human; details: 60 min, 37 °C, 0.5 nM tracer, normalized to ([^125I]IBA)KuE
Experimental: Competitive binding experiments (IC50) were carried out in accordance with an established protocol using PSMA-expressing LNCaP cells and ([^125I]I-BA)KuE as standard radioligand. […] Please see the Supplementary Material for experimental details. […] The supernatant was removed, cells were washed with assay medium, and an acid wash (50 mM NaOAc in saline, pH 4.5) was performed to remove membrane-associated activity. Cells were then lysed using 1N NaOH, and internalized activity was quantified using a γ-counter. […] Tocris Bioscience, Bristol, UK) and normalized to the specific internalization observed for the radioiodinated reference compound in the same experiment. Data represent means ± SD (n=3) from three separate determinations.

[2] = exploratory cohort, five patients

Sequence of PSMA (Q04609 whole entry): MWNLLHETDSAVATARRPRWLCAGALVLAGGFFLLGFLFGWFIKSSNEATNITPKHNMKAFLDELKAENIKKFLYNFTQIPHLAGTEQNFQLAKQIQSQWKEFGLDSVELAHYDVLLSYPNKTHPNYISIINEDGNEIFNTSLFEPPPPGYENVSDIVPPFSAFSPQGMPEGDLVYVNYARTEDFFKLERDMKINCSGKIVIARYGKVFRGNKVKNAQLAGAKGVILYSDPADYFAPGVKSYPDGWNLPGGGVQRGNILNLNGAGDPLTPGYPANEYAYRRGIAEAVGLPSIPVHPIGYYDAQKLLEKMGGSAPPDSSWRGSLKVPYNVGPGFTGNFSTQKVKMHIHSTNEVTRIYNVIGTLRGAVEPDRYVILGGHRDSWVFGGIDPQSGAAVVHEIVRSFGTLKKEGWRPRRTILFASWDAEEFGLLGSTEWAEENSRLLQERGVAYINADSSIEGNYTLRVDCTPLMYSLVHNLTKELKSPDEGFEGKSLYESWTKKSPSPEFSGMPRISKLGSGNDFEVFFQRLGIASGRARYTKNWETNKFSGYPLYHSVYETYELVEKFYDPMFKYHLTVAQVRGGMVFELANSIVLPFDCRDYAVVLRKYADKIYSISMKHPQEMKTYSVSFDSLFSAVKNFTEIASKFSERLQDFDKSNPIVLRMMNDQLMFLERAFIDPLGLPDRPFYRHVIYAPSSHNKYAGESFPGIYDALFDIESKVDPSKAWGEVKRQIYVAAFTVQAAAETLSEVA

C[N+]1=C(/C=C/C=C/C=C2/N(CCCCCC(=O)NCCCC[C@@H](NC(=O)[C@@H](CO)NC(=O)[C@@H](CO)NC(=O)[C@@H](CO)NC(=O)CS)C(=O)N[C@H](Cc3ccc(O)cc3)C(=O)N[C@H](Cc3ccc4ccccc4c3)C(=O)N[C@H](CCCCNC(=O)CCCCCCC(=O)NCCCC[C@H](NC(=O)N[C@@H](CCC(=O)O)C(=O)O)C(=O)O)C(=O)O)c3ccc(S(=O)(=O)[O-])cc3C2(C)C)C(C)(C)c2cc(S(=O)(=O)O)ccc21 [[^99mTc]Tc-PSMA-HSG, metal not drawn]
RGS, ex vivo activity, left external iliac LN (PSMA; Patient #1): 190 cps
RGS, ex vivo activity, right external iliac LN (PSMA; Patient #1): 230 cps
RGS, in vivo activity measurements (PSMA; Patient #1, 53 µg): intraoperative detection feasible; after resection no further tracer accumulation detected
RGS, in and ex vivo activity measurements (PSMA; Patient #2, 53 µg): In and ex vivo activity measurements: No positive LN
RGS, in and ex vivo activity measurements (PSMA; Patient #3, 53 µg): In and ex vivo activity measurements: No positive LN
RGS, ex vivo activity, right iliac LN (2 adjacent LNs) (PSMA; Patient #4): 20 cps
RGS, ex vivo activity, right iliac LN (first listed) (PSMA; Patient #4): 50 cps
RGS, ex vivo activity, right iliac LN (last listed) (PSMA; Patient #4): 15 cps
RGS, in vivo activity measurements (PSMA; Patient #4, 350 µg): No detection of tracer-positive lesions
specificity of uptake in resected lymph nodes, fluorescence microscopy (PSMA; Patient #4, 350 µg): highly PSMA-specific
RGS, in and ex vivo activity measurements (PSMA; Patient #5, 250 µg): In and ex vivo activity measurements: No positive LN
NPV of RGS (PSMA; [2]): 100%
PPV of RGS (PSMA; [2]): 100%
sensitivity of RGS (abstract: selectivity) (PSMA; [2]): 100%
specificity of RGS (PSMA; [2]): 100%
lymph node metastases in tracer-avid lesions, intraoperative gamma detection (PSMA; in vivo): 6/6
true negative lymph nodes identified by RGS (PSMA; patient sub-cohort): 53/53
true positive lymph nodes identified by RGS (PSMA; patient sub-cohort): 4/4
tissue uptake at 2 h (in vivo; PC3-Pip tumor): 26.6 ± 5 %ID/g
tissue uptake at 2 h (in vivo; PC3 WT tumor): 1.6 ± 0.3 %ID/g
tissue uptake at 2 h (in vivo; blood): 2.8 ± 0.4 %ID/g
tissue uptake at 2 h (in vivo; heart): 1.5 ± 0.3 %ID/g
tissue uptake at 2 h (in vivo; intestines): 0.9 ± 0.1 %ID/g
tissue uptake at 2 h (in vivo; kidneys): 100 ± 8.2 %ID/g
tissue uptake at 2 h (in vivo; liver): 2.9 ± 0.5 %ID/g
tissue uptake at 2 h (in vivo; lung): 4.1 ± 1.2 %ID/g
tissue uptake at 2 h (in vivo; muscle): 0.6 ± 0.1 %ID/g
tissue uptake at 2 h (in vivo; pancreas): 0.9 ± 0.2 %ID/g
tissue uptake at 2 h (in vivo; salivary glands): 2.2 ± 0.4 %ID/g
tissue uptake at 2 h (in vivo; spleen): 8.2 ± 0.7 %ID/g
tissue uptake at 2 h (in vivo; stomach): 1.5 ± 0.1 %ID/g
internalization [% of reference] [1]: 14 ± 1 % of reference
